Test results from patent US20090018111A1, “Novel Antimicrobial Medicament” (priority 2004, published 2009).
Where two headings read alike, the source gives them in different places.

What was measured:
P. vurgalis OX-19 = assay: Sensitivity test (agar dilution); type: cell-based, Proteus vulgaris; settings: Proteus vulgaris
How it was run: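 Agar dilution on Mueller Hinton agar per the Japan Chemotherapeutic Society method, with two-fold serial dilutions of single drugs or combinations dissolved in water. Overnight 37° C cultures were suspended in BSG at ~10^6 CFU/ml and ~5 μl spotted.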

S. marcescens 2054522 = assay: Sensitivity test (agar dilution), clinical isolate; type: cell-based, Serratia marcescens
Procedure: (§1) In addition, the antibacterial activities were tested against strains which are comparatively less sensitive to β-lactam compounds, namely clinically isolated 13 strains of Acinetobacter calcoaceticus and Acinetobacter lwoffi, clinically isolated 11 strains of Serratia marcescens, clinically isolated 12 strains of Burkholderia cepacia, and clinically isolated 15 strains of Pseudomonas aeruginosa.
(§2) According to the standard method of Japan Chemotherapeutic Society (Chemotherapy, vol. […], p 76-79 (1981)) the test was carried out using the agar dilution method. After dissolving test samples in distilled water, agar medium containing the test samples was prepared in such a manner that the final concentration became twice serial dilution by pouring serially diluted combination drug solution or a single drug solution into agar medium. As agar medium was used Mueller Hinton Agar medium (MHA). Then, each strain was cultivated over night at 37° C. in an incubator and suspended in buffered saline solution with gelatin (BSG) in the concentration of about 10^6 CFU/ml. The suspension (about 5 μl) containing test strains was inoculated to the medium containing the test samples by Micro Planter.
(§3) Each drug was weighed, and dissolved in distilled water to give a test sample. When the drugs are used in combination, two kinds of solution containing each drug were mixed so as to be various ratio of concentration to give a mixed solution. When the sample is subjected to sensitivity test, this mixed solution was diluted by twice serial dilution method.
(§4) Furthermore, when the drug is solely used, each test sample was used as it is, and diluted by twice serial dilution method from the maximum concentration to the minimum concentration.

S. marcescens 1944950 = assay: Sensitivity test (agar dilution), clinical isolate; type: cell-based, Serratia marcescens
Procedure: as §1, §2, §3, §4

S. marcescens 14991 = assay: Sensitivity test (agar dilution), clinical isolate; type: cell-based, Serratia marcescens
Procedure: as §1, §2, §3, §4

S. marcescens 14981 = assay: Sensitivity test (agar dilution), clinical isolate; type: cell-based, Serratia marcescens
Procedure: as §1, §2, §3, §4

S. marcescens 14425 = assay: Sensitivity test (agar dilution), clinical isolate; type: cell-based, Serratia marcescens
Procedure: as §1, §2, §3, §4

S. marcescens 7138 = assay: Sensitivity test (agar dilution), clinical isolate; type: cell-based, Serratia marcescens
Procedure: as §1, §2, §3, §4

S. marcescens 2012884 = assay: Sensitivity test (agar dilution), clinical isolate; type: cell-based, Serratia marcescens
Procedure: as §1, §2, §3, §4

S. marcescens 14424 = assay: Sensitivity test (agar dilution), clinical isolate; type: cell-based, Serratia marcescens
Procedure: as §1, §2, §3, §4

S. marcescens 7155 = assay: Sensitivity test (agar dilution), clinical isolate; type: cell-based, Serratia marcescens
Procedure: as §1, §2, §3, §4

S. marcescens 14689 = assay: Sensitivity test (agar dilution), clinical isolate; type: cell-based, Serratia marcescens
Procedure: as §1, §2, §3, §4

S. marcescens 1928513 = assay: Sensitivity test (agar dilution), clinical isolate; type: cell-based, Serratia marcescens
Procedure: as §1, §2, §3, §4

Compound: C[C@H]1C=C(c2csc(SC3=C(C(=O)O)N4C(=O)[C@H]([C@@H](C)O)[C@H]4[C@H]3C)n2)CN1 [SM, (4R,5S,6S)-6-[(1R)-1-Hydroxyethyl]-4-methyl-3-({4-[(5S)-5-methyl-2,5-dihydro-1H-pyrrol-3-yl]-1,3-thiazol-2-yl}sulfanyl)-7-oxo-1-azabicyclo[3.2.0]hept-2-ene-2-carboxylic acid]
- MIC (P. vurgalis OX-19; OX19, Concomitant (IPM:SM = 1:1)): 0.063 µg/mL
- MIC (P. vurgalis OX-19; OX19, Concomitant (MEPM:SM = 1:1)): ≤ 0.016 µg/mL
- MIC (P. vurgalis OX-19; OX19, Concomitant (MEPM:SM = 1:2)): ≤ 0.031 µg/mL
- MIC (P. vurgalis OX-19; OX19, Concomitant (MEPM:SM = 1:4)): ≤ 0.063 µg/mL
- MIC (P. vurgalis OX-19; OX19, Concomitant drug (MEPM:SM = 2:1)): 0.016 µg/mL
- MIC (P. vurgalis OX-19; OX19, alone): 0.063 µg/mL
- MIC (P. vurgalis OX-19; OX19, read-out: MIC concomitant, Concomitant (AZT:SM = 1:1), P. vurgalis OX-19): 0.004 µg/mL
- MIC (P. vurgalis OX-19; OX19, read-out: MIC concomitant, Concomitant (BIPM:SM = 1:1), P. vurgalis OX-19): 0.031 µg/mL
- MIC (P. vurgalis OX-19; OX19, read-out: MIC concomitant, Concomitant (CAZ:SM = 1:1), P. vurgalis OX-19): 0.008 µg/mL
- MIC (P. vurgalis OX-19; OX19, read-out: MIC concomitant, Concomitant (CPFX:SM = 1:1), P. vurgalis OX-19): 0.008 µg/mL
- MIC (P. vurgalis OX-19; OX19, read-out: MIC concomitant, Concomitant (DRPM:SM = 1:1), P. vurgalis OX-19): 0.031 µg/mL
- MIC (P. vurgalis OX-19; OX19, read-out: MIC concomitant, Concomitant (PAPM:SM = 1:1), P. vurgalis OX-19): 0.063 µg/mL
- MIC (P. vurgalis OX-19; OX19, read-out: MIC concomitant, Concomitant (PIPC:SM = 1:1), P. vurgalis OX-19): ≤ 0.002 µg/mL
- MIC (S. marcescens 2054522; Serratia marcescens, 2054522, Concomitant (ME:SM = 1:1)): 1 µg/mL
- MIC (S. marcescens 2054522; Serratia marcescens, 2054522, Concomitant (ME:SM = 1:2)): 1 µg/mL
- MIC (S. marcescens 2054522; Serratia marcescens, 2054522, Concomitant (ME:SM = 1:4)): 2 µg/mL
- MIC (S. marcescens 2054522; Serratia marcescens, 2054522, Concomitant (ME:SM = 2:1)): 0.5 µg/mL
- MIC (S. marcescens 2054522; Serratia marcescens, 2054522, alone): 8 µg/mL
- MIC (S. marcescens 1944950; Serratia marcescens, 1944950, Concomitant (ME:SM = 1:1)): 8 µg/mL
- MIC (S. marcescens 1944950; Serratia marcescens, 1944950, Concomitant (ME:SM = 1:2)): 8 µg/mL
- MIC (S. marcescens 1944950; Serratia marcescens, 1944950, Concomitant (ME:SM = 1:4)): 16 µg/mL
- MIC (S. marcescens 1944950; Serratia marcescens, 1944950, Concomitant (ME:SM = 2:1)): 4 µg/mL
- MIC (S. marcescens 1944950; Serratia marcescens, 1944950, alone): 32 µg/mL
- MIC (S. marcescens 14991; Serratia marcescens, 14991, Concomitant (ME:SM = 1:1)): 2 µg/mL
- MIC (S. marcescens 14991; Serratia marcescens, 14991, Concomitant (ME:SM = 1:2)): 2 µg/mL
- MIC (S. marcescens 14991; Serratia marcescens, 14991, Concomitant (ME:SM = 1:4)): 4 µg/mL
- MIC (S. marcescens 14991; Serratia marcescens, 14991, Concomitant (ME:SM = 2:1)): 0.5 µg/mL
- MIC (S. marcescens 14991; Serratia marcescens, 14991, alone): 32 µg/mL
- MIC (S. marcescens 14981; Serratia marcescens, 14981, Concomitant (ME:SM = 1:1)): 1 µg/mL
- MIC (S. marcescens 14981; Serratia marcescens, 14981, Concomitant (ME:SM = 1:2)): 1 µg/mL
- MIC (S. marcescens 14981; Serratia marcescens, 14981, Concomitant (ME:SM = 1:4)): 2 µg/mL
- MIC (S. marcescens 14981; Serratia marcescens, 14981, Concomitant (ME:SM = 2:1)): 0.5 µg/mL
- MIC (S. marcescens 14981; Serratia marcescens, 14981, alone): 8 µg/mL
- MIC (S. marcescens 14425; Serratia marcescens, 14425, Concomitant (ME:SM = 1:1)): 0.031 µg/mL
- MIC (S. marcescens 14425; Serratia marcescens, 14425, Concomitant (ME:SM = 1:2)): 0.063 µg/mL
- MIC (S. marcescens 14425; Serratia marcescens, 14425, Concomitant (ME:SM = 1:4)): 0.125 µg/mL
- MIC (S. marcescens 14425; Serratia marcescens, 14425, Concomitant (ME:SM = 2:1)): 0.016 µg/mL
- MIC (S. marcescens 14425; Serratia marcescens, 14425, alone): 2 µg/mL
- MIC (S. marcescens 7138; Serratia marcescens, 7138, Concomitant (ME:SM = 1:1)): 2 µg/mL
- MIC (S. marcescens 7138; Serratia marcescens, 7138, Concomitant (ME:SM = 1:2)): 2 µg/mL
- MIC (S. marcescens 7138; Serratia marcescens, 7138, Concomitant (ME:SM = 1:4)): 2 µg/mL
- MIC (S. marcescens 7138; Serratia marcescens, 7138, Concomitant (ME:SM = 2:1)): 1 µg/mL
- MIC (S. marcescens 7138; Serratia marcescens, 7138, alone): 8 µg/mL
- MIC (S. marcescens 2012884; Serratia marcescens, 2012884, Concomitant (ME:SM = 1:1)): 2 µg/mL
- MIC (S. marcescens 2012884; Serratia marcescens, 2012884, Concomitant (ME:SM = 1:2)): 4 µg/mL
- MIC (S. marcescens 2012884; Serratia marcescens, 2012884, Concomitant (ME:SM = 1:4)): 4 µg/mL
- MIC (S. marcescens 2012884; Serratia marcescens, 2012884, Concomitant (ME:SM = 2:1)): 2 µg/mL
- MIC (S. marcescens 2012884; Serratia marcescens, 2012884, alone): 8 µg/mL
- MIC (S. marcescens 14424; Serratia marcescens, 14424, Concomitant (ME:SM = 1:1)): 8 µg/mL
- MIC (S. marcescens 14424; Serratia marcescens, 14424, Concomitant (ME:SM = 1:2)): 4 µg/mL
- MIC (S. marcescens 14424; Serratia marcescens, 14424, Concomitant (ME:SM = 1:4)): 8 µg/mL
- MIC (S. marcescens 14424; Serratia marcescens, 14424, Concomitant (ME:SM = 2:1)): 2 µg/mL
- MIC (S. marcescens 14424; Serratia marcescens, 14424, alone): 16 µg/mL
- MIC (S. marcescens 7155; Serratia marcescens, 7155, Concomitant (ME:SM = 1:1)): 2 µg/mL
- MIC (S. marcescens 7155; Serratia marcescens, 7155, Concomitant (ME:SM = 1:2)): 2 µg/mL
- MIC (S. marcescens 7155; Serratia marcescens, 7155, Concomitant (ME:SM = 1:4)): 2 µg/mL
- MIC (S. marcescens 7155; Serratia marcescens, 7155, Concomitant (ME:SM = 2:1)): 1 µg/mL
- MIC (S. marcescens 7155; Serratia marcescens, 7155, alone): 8 µg/mL
- MIC (S. marcescens 14689; Serratia marcescens, 14689, Concomitant (ME:SM = 1:1)): 2 µg/mL
- MIC (S. marcescens 14689; Serratia marcescens, 14689, Concomitant (ME:SM = 1:2)): 4 µg/mL
- MIC (S. marcescens 14689; Serratia marcescens, 14689, Concomitant (ME:SM = 1:4)): 8 µg/mL
- MIC (S. marcescens 14689; Serratia marcescens, 14689, Concomitant (ME:SM = 2:1)): 2 µg/mL
- MIC (S. marcescens 14689; Serratia marcescens, 14689, alone): 32 µg/mL
- MIC (S. marcescens 1928513; Serratia marcescens, 1928513, Concomitant (ME:SM = 1:1)): 1 µg/mL
- MIC (S. marcescens 1928513; Serratia marcescens, 1928513, Concomitant (ME:SM = 1:2)): 1 µg/mL
- MIC (S. marcescens 1928513; Serratia marcescens, 1928513, Concomitant (ME:SM = 1:4)): 2 µg/mL
- MIC (S. marcescens 1928513; Serratia marcescens, 1928513, Concomitant (ME:SM = 2:1)): 0.5 µg/mL
- MIC (S. marcescens 1928513; Serratia marcescens, 1928513, alone): 8 µg/mL
